Data from PubChem BioAssay (NCI).
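Protocol summary: plate cells (96-well), add compound at 5 concentrations, incubate 48 h, interpolate endpoints linearly. TGI marks complete inhibition of growth.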

Experiments:
Assay in all cases: NCI tumour cell line growth inhibition, 48 h
[1] = test system: A549 NSCLC
[2] = test system: BT-549 breast
[3] = test system: CCRF-CEM leukemia
[4] = test system: DU-145 prostate
[5] = test system: EKVX NSCLC
[6] = test system: HCT-116 colon
[7] = test system: HL-60(TB) leukemia
[8] = test system: IGROV1 ovarian
[9] = test system: K-562 leukemia
[10] = test system: KM12 colon
[11] = test system: MALME-3M melanoma
[12] = test system: NCI-H522 lung
[13] = test system: NCI/ADR-RES ovarian
[14] = test system: OVCAR-4 ovarian
[15] = test system: OVCAR-8 ovarian
[16] = test system: SK-MEL-2 melanoma
[17] = test system: SN12C renal
[18] = test system: SW-620 colon
[19] = test system: TK-10 renal
[20] = test system: UO-31 renal

| SMILES | TGI [1] [µM] | TGI [2] [µM] | TGI [3] [µM] | TGI [4] [µM] | TGI [5] [µM] | TGI [6] [µM] | TGI [7] [µM] | TGI [8] [µM] | TGI [9] [µM] | TGI [10] [µM] | TGI [11] [µM] | TGI [12] [µM] | TGI [13] [µM] | TGI [14] [µM] | TGI [15] [µM] | TGI [16] [µM] | TGI [17] [µM] | TGI [18] [µM] | TGI [19] [µM] | TGI [20] [µM] |
| --- | --- | --- | --- | --- | --- | --- | --- | --- | --- | --- | --- | --- | --- | --- | --- | --- | --- | --- | --- | --- |
| NS(=O)(=O)c1nn2c(Br)c(-c3ccccc3)nc2s1 | 21.6 | 7.69 | 11 | 8.5 | 31.9 | 7.3 | 36.4 | 23.3 | 21.2 | 21.3 | 13.7 | 3.55 | 12.6 | 24.4 | 7.89 | 16.9 | 7.94 | 12.4 | 17.7 | 15.5 |
| CCOC(=O)C1=C(C)N(C)C23OC4(C(=O)OC)CC2c2ccccc2C1N3C4=O (stereo not given) | > 100 | > 100 | > 100 | > 100 | > 100 | > 100 | > 100 | > 100 | > 100 | > 100 | > 100 | > 100 | > 100 | > 100 | > 100 | > 100 | > 100 | > 100 | > 100 | > 100 |
| Nc1nc(N)c2[nH]c(CNc3ccc(C(=O)O)cc3)nc2n1 | > 100 | > 100 | > 100 | > 100 | > 100 | > 100 | > 100 | > 100 | > 100 | > 100 | > 100 | > 100 | > 100 | > 100 | > 100 | > 100 | > 100 | > 100 | > 100 | > 100 |
| CCOC(=O)C1(Cc2ccc3c(c2)CCC3)Cc2cc3c(cc2C1)CCC3 | > 100 | > 100 | 35 | > 100 | > 100 | > 100 | > 100 | > 100 | > 100 | > 100 | > 100 | 75.5 | > 100 | 87.9 | > 100 | > 100 | > 100 | > 100 | > 100 | > 100 |
| O=C(O)c1n[nH]nc1Cl | > 100 | > 100 | > 100 | > 100 | > 100 | > 100 | > 100 | > 100 | > 100 | > 100 | > 100 | > 100 | > 100 | > 100 | > 100 | > 100 | > 100 | > 100 | > 100 | > 100 |
